The record followed here is patent publication US8163775B2, “Allosteric modulators of metabotropic glutamate receptors” (Addex Pharma SA, priority 2003, dated 2012).

`O=C(c1ccc(F)cc1)N1CCC[C@H](c2nc(-c3ccc4ccccc4c3)no2)C1` [Example 53, (4-Fluoro-phenyl)-[(S)-3-(3-naphthalen-2-yl-[1,2,4]oxadiazol-5-yl)-piperidin-1-yl]-methanone] registered a melting point of 142 to 143 °C.
Then `O=C(c1ccc(F)cc1)N1CCC[C@H](c2nc(-c3ccncc3)no2)C1` [Example 48, (4-Fluoro-phenyl)-[(S)-3-(3-pyridin-4-yl-[1,2,4]oxadiazol-5-yl)-piperidin-1-yl]-methanone], with 113 to 115 °C; and `O=C(c1ccc2ncsc2c1)N1CCC[C@H](c2nc(-c3ccc(F)cc3)no2)C1` [Example 36, Benzothiazol-6-yl-{(S)-3-[3-(4-fluoro-phenyl)-1,2,4-oxadiazol-5-yl]-piperidin-1-yl}-methanone], with 63 to 64 °C; and `O=C(c1ccccc1)N1CCCC(c2nc(-c3ccc(F)cc3)no2)C1` (centres unmarked) [Example 5, {3-[3-(4-Fluoro-phenyl)-[1,2,4]oxadiazol-5-yl]-piperidin-1-yl}-phenyl-methanone], with 82 to 83 °C.
On to `O=C(c1ccc(F)cc1)N1CCCC(c2nc(-c3ccccc3)no2)C1` (centres unmarked) [Example 7, (4-Fluoro-phenyl)-[3-(3-phenyl-[1,2,4]oxadiazol-5-yl)-piperidin-1-yl]-methanone], for which the melting point was in the range of 78 to 79 °C.
`O=C(c1ccc2[nH]ccc2c1)N1CCC[C@H](c2nc(-c3ccc(F)cc3)no2)C1` [Example 40, {(S)-3-[3-(4-Fluoro-phenyl)-1,2,4-oxadiazol-5-yl]-piperidin-1-yl}-(1H-indol-5-yl)-methanone]: the melting point was 191 to 192 °C.
Consider `O=C(c1nccs1)N1CCC[C@H](c2nc(-c3ccc(F)cc3)no2)C1` [Example 37, {(S)-3-[3-(4-Fluoro-phenyl)-1,2,4-oxadiazol-5-yl]-piperidin-1-yl}-thiazol-2-yl-methanone], for which the melting point lay within 94 to 95 °C.
With `O=C(CCc1ccc(F)cc1)N1CCC[C@H](c2nc(-c3ccc(F)cc3)no2)C1` [Example 42, 3-(4-Fluoro-phenyl)-1-{(S)-3-[3-(4-fluoro-phenyl)-1,2,4-oxadiazol-5-yl]-piperidin-1-yl}-propan-1-one], the melting point was 83 to 84 °C.
In the case of `O=C(c1ccc(F)cc1)N1CCC[C@H](c2nc(-c3ccc([N+](=O)[O-])cc3)no2)C1` [Example 71, (4-Fluoro-phenyl)-{(S)-3-[3-(4-nitro-phenyl)-[1,2,4]oxadiazol-5-yl]-piperidin-1-yl}-methanone], the melting point was 162 to 164 °C.
Then `Cc1ncsc1C(=O)N1CCC[C@H](c2nc(-c3ccc(F)cc3)no2)C1` [Example 38, {(S)-3-[3-(4-Fluoro-phenyl)-1,2,4-oxadiazol-5-yl]-piperidin-1-yl}-(4-methyl-thiazol-5-yl)-methanone], with 122 to 124 °C; and `O=C(c1ccc(F)c(F)c1)N1CCC[C@H](c2nc(-c3ccccc3)no2)C1` [Example 70, (3,4-Difluoro-phenyl)-[(S)-3-(3-phenyl-[1,2,4]oxadiazol-5-yl)-piperidin-1-yl]-methanone], with 149 to 151 °C; and `O=C(c1ccc(F)cc1)N1CCCC(c2nnc(-c3ccc(F)cc3)[nH]2)C1` (centres unmarked) [Example 1, (4-Fluoro-phenyl)-{3-[5-(4-fluoro-phenyl)-4H-[1,2,4]triazol-3-yl]-piperidin-1-yl}-methanone], with 95 °C.
Turning to `O=C(c1ccc(C(F)(F)F)cc1)N1CCC[C@H](c2nc(-c3ccc(F)cc3)no2)C1` [Example 22, {(S)-3-[3-(4-Fluoro-phenyl)-[1,2,4]oxadiazol-5-yl]-piperidin-1-yl}-(4-trifluoromethyl-phenyl)-methanone], the melting point lay within 109 to 110 °C.
`Cc1nc(-c2cnccn2)sc1C(=O)N1CCC[C@H](c2nc(-c3ccc(F)cc3)no2)C1` [Example 14, {(S)-3-[3-(4-Fluoro-phenyl)-[1,2,4]oxadiazol-5-yl]-piperidin-1-yl}-(4-methyl-2-pyrazin-2-yl-thiazol-5-yl)-methanone] yielded a melting point of 147 to 148 °C.
The molecule `Cn1cccc1C(=O)N1CCC[C@H](c2nc(-c3ccc(F)cc3)no2)C1` [Example 33, {(S)-3-[3-(4-Fluoro-phenyl)-1,2,4-oxadiazol-5-yl]-piperidin-1-yl}-(1-methyl-1H-pyrrol-2-yl)-methanone] displayed a melting point of 84 to 85 °C.
`O=C(c1ccc(-c2ccccn2)s1)N1CCC[C@H](c2nc(-c3ccc(F)cc3)no2)C1` [Example 31, {(S)-3-[3-(4-Fluoro-phenyl)-1,2,4-oxadiazol-5-yl]-piperidin-1-yl}-(5-pyridin-2-yl-thiophen-2-yl)-methanone] had a melting point of 115 to 117 °C.
Then `COc1ccc(-c2noc(C3CCCN(C(=O)c4ccccc4)C3)n2)cc1` (centres unmarked) [Example 3, {3-[3-(4-Methoxy-phenyl)-[1,2,4]oxadiazol-5-yl]-piperidin-1-yl}-phenyl-methanone], with 121 °C; and `O=C(c1ccc(F)cc1)N1CCCC(c2nc(-c3cccc(F)c3)no2)C1` (centres unmarked) [Example 10, (4-Fluoro-phenyl)-{3-[3-(3-fluoro-phenyl)-[1,2,4]oxadiazol-5-yl]-piperidin-1-yl}-methanone], with 86 to 89 °C.
The molecule `O=C(c1ccc(F)c(Cl)c1)N1CCC[C@H](c2nc(-c3ccc(F)cc3)no2)C1` [Example 27, (3-Chloro-4-fluoro-phenyl)-{(S)-3-[3-(4-fluoro-phenyl)-[1,2,4]oxadiazol-5-yl]-piperidin-1-yl}-methanone] showed a melting point of 123 to 124 °C.
Under `O=C(c1ccc(F)c(F)c1)N1CCC[C@H](c2nc(-c3ccc([N+](=O)[O-])cc3)no2)C1` [Example 72, (3,4-Difluoro-phenyl)-{(S)-3-[3-(4-nitro-phenyl)-[1,2,4]oxadiazol-5-yl]-piperidin-1-yl}-methanone] stands 138 to 140 °C; under `O=C(c1ccc(N2CCOCC2)nc1)N1CCC[C@H](c2nc(-c3ccc(F)cc3)no2)C1` [Example 39, {(S)-3-[3-(4-Fluoro-phenyl)-1,2,4-oxadiazol-5-yl]-piperidin-1-yl}-(6-morpholin-4-yl-pyridin-3-yl)-methanone], 112 to 114 °C.
Regarding `O=C(/C=C/c1ccc(F)cc1)N1CCC[C@H](c2nc(-c3ccc(F)cc3)no2)C1` [Example 64, (E)-3-(4-Fluoro-phenyl)-1-{(S)-3-[3-(4-fluoro-phenyl)-[1,2,4]oxadiazol-5-yl]-piperidin-1-yl}-propenone], the melting point was in the range of 137 to 139 °C.
Take `Cc1cc(C(=O)N2CCC[C@H](c3nc(-c4ccc(F)cc4)no3)C2)ccc1F` [Example 30, (4-Fluoro-3-methyl-phenyl)-{(S)-3-[3-(4-fluoro-phenyl)-[1,2,4]oxadiazol-5-yl]-piperidin-1-yl}-methanone]: the melting point was 106 to 107 °C.
Under `O=C(c1ccc2[nH]cnc2c1)N1CCC[C@H](c2nc(-c3ccc(F)cc3)no2)C1` [Example 45, {(S)-3-[3-(4-Fluoro-phenyl)-1,2,4-oxadiazol-5-yl]-piperidin-1-yl}-benzoimidazol-6-yl-methanone] stands 110 to 115 °C.
Then `O=C(c1ccc(F)c(F)c1)N1CCC[C@H](c2nc(-c3ccc(F)cc3)no2)C1` [Example 35, (3,4-Difluoro-phenyl)-{(S)-3-[3-(4-fluoro-phenyl)-[1,2,4]oxadiazol-5-yl]-piperidin-1-yl}-methanone], with 120 to 121 °C; and `O=C(c1cc(F)c(F)c(F)c1)N1CCC[C@H](c2nc(-c3ccc(F)cc3)no2)C1` [Example 26, {(S)-3-[3-(4-Fluoro-phenyl)-[1,2,4]oxadiazol-5-yl]-piperidin-1-yl}-(3,4,5-trifluoro-phenyl)-methanone], with 139 to 140 °C; and `O=C(c1ccc(F)c(F)c1)N1CCC[C@H](c2nc(-c3ccccc3F)no2)C1` [Example 59], with 115 to 119 °C.
Under `O=C(c1ccc(F)cc1)N1CCC[C@H](c2nc(-c3ccccc3)no2)C1` [Example 69, (4-Fluoro-phenyl)-[(S)-3-(3-phenyl-[1,2,4]oxadiazol-5-yl)-piperidin-1-yl]-methanone] stands 116 to 118 °C; under `O=C(c1cccs1)N1CCC[C@H](c2nc(-c3ccc(F)cc3)no2)C1` [Example 13, S-(thiophen-2-yl)-{3-[3-(4-fluoro-phenyl)-[1,2,4]oxadiazol-5-yl]-piperidin-1-yl}-methanone], 82 to 83 °C; under `Cc1ccsc1C(=O)N1CCC[C@H](c2nc(-c3ccc(F)cc3)no2)C1` [Example 32, {(S)-3-[3-(4-Fluoro-phenyl)-1,2,4-oxadiazol-5-yl]-piperidin-1-yl}-(3-methyl-thiophen-2-yl)-methanone], 90 to 92 °C.
In the case of `O=C(c1cccc(F)c1)N1CCCC(c2nc(-c3ccc(F)cc3)no2)C1` (centres unmarked) [Example 6, (3-Fluoro-phenyl)-{3-[3-(4-fluoro-phenyl)-[1,2,4]oxadiazol-5-yl]-piperidin-1-yl}-methanone], the melting point lay within 139 to 140 °C.
Then `Cc1cc(C(=O)N2CCC[C@H](c3nc(-c4ccc(F)cc4)no3)C2)nn1C` [Example 21, (1,5-Dimethyl-1H-pyrazol-3-yl)-{(S)-3-[3-(4-fluoro-phenyl)-[1,2,4]oxadiazol-5-yl]-piperidin-1-yl}-methanone], with 108 to 109 °C; and `O=C(c1csnn1)N1CCC[C@H](c2nc(-c3ccc(F)cc3)no2)C1` [Example 18, {(S)-3-[3-(4-Fluoro-phenyl)-[1,2,4]oxadiazol-5-yl]-piperidin-1-yl}-[1,2,3]thiadiazol-4-yl-methanone], with 90 to 91 °C.
Under `O=C(c1ccno1)N1CCC[C@H](c2nc(-c3ccc(F)cc3)no2)C1` [Example 24, {(S)-3-[3-(4-Fluoro-phenyl)-[1,2,4]oxadiazol-5-yl]-piperidin-1-yl}-isoxazol-5-yl-methanone] stands 93 to 94 °C.
Then `O=C(c1ccc(F)cc1)N1CCOC(c2nc(-c3ccc(F)cc3)no2)C1` (centres unmarked) [Example 60, (4-Fluoro-phenyl)-{2-[3-(4-fluoro-phenyl)-[1,2,4]oxadiazol-5-yl]-morpholin-4-yl}-methanone], with 116 to 117 °C.
